Some test systems named below: A549 NSCLC; EKVX NSCLC; HCT-15 colon; HT29 colon; IGROV1 ovarian; RPMI-8226 leukemia; SF-295 CNS; SR leukemia; TK-10 renal; HCC-2998 colon.
What all share (test): NCI-60 cell line screen, 48 h

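Five concentrations, 48 hours, 96-well plates. GI50 = concentration required for 50% inhibition of growth. TGI marks complete inhibition of growth.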

Turning to `C(=Nc1cnc2ccccc2c1)c1ccc2ccccc2n1`, the TGI in the test on A549 NSCLC, with EKVX NSCLC, in the test on HCT-15 colon, with HT29 colon, in the test on IGROV1 ovarian and in the test on RPMI-8226 leukemia was over 100 µM in each case. The TGI is over 100 µM in the test on SF-295 CNS, 71.4 µM in the test with SR leukemia and over 100 µM in the test with TK-10 renal.
For the molecule `C[C@@H](NC(=O)c1ncnc(N)c1Cl)c1ncc(C(=O)Nc2cc(C(F)(F)F)c(Cl)cn2)s1`, the GI50 with A549 NSCLC was 18 µM; in the test with HCC-2998 colon, 13.7 µM; in the test on HCT-15 colon, 21.9 µM; in the test with HT29 colon it was 1.07 µM; in the test on IGROV1 ovarian, 10.8 µM; in the test on RPMI-8226 leukemia, 15.2 µM. Besides, the GI50 with SF-295 CNS is 13.6 µM; in the test on SR leukemia it was 15.3 µM; in the test with TK-10 renal, 19.6 µM. For the same molecule, the TGI was 64.4 µM with A549 NSCLC; 40.7 µM with HCC-2998 colon; over 100 µM with HCT-15 colon; 46.2 µM with HT29 colon; 39.6 µM with IGROV1 ovarian; 49 µM with RPMI-8226 leukemia. Moreover, the TGI in the test on SF-295 CNS worked out at 34.7 µM; in the test on SR leukemia it was 64.5 µM; in the test on TK-10 renal, 46.6 µM.
Turning to `CCN(CC)CCN1C(=O)C2C3C(=O)CC(C)(CC3C)C2C1=O` (stereo unspecified), the GI50 in the test on A549 NSCLC, in the test on EKVX NSCLC, in the test on HCC-2998 colon, with HCT-15 colon, in the test with HT29 colon and in the test with IGROV1 ovarian was over 100 µM in each case. Further, the GI50 in the test on SF-295 CNS, in the test on SR leukemia and in the test on TK-10 renal was over 100 µM each time. Besides, the TGI with A549 NSCLC, in the test with EKVX NSCLC, in the test with HCC-2998 colon, with HCT-15 colon, in the test with HT29 colon and with IGROV1 ovarian was over 100 µM each time. Besides, the TGI with SF-295 CNS, with SR leukemia and with TK-10 renal was over 100 µM throughout.
Take `ClCc1ccc(Cn2cnc3c(Cl)ncnc32)cc1`: the GI50 in the test on A549 NSCLC was 11.2 µM; with EKVX NSCLC it was 9.68 µM; in the test with HCT-15 colon, 10.6 µM; with HT29 colon, over 45 µM; in the test on IGROV1 ovarian it was 13.6 µM; in the test with RPMI-8226 leukemia it was 12.2 µM. Besides, the GI50 is 5.71 µM with SF-295 CNS, 0.0902 µM with SR leukemia and 11.3 µM in the test with TK-10 renal. For the same molecule, the TGI is 38.3 µM in the test on A549 NSCLC; 19.5 µM in the test with EKVX NSCLC; over 36.7 µM in the test on HCT-15 colon; over 100 µM in the test on HT29 colon; 42 µM in the test on IGROV1 ovarian; 33.5 µM in the test with RPMI-8226 leukemia. The TGI with SF-295 CNS worked out at 19.2 µM; in the test on TK-10 renal, 23.6 µM.
As for `CCOc1ccc2c(c1)CN(Cc1ccc(Cl)cc1)CO2`, the GI50 with A549 NSCLC is 35.1 µM; in the test on HCC-2998 colon, 18.7 µM; in the test with HCT-15 colon it was 16.5 µM; with HT29 colon it was 20.3 µM; with IGROV1 ovarian it was 23 µM; in the test on RPMI-8226 leukemia, 19.9 µM. In addition, the GI50 in the test on SF-295 CNS is 13 µM; in the test with SR leukemia it was 15.6 µM; in the test with TK-10 renal, 19 µM. Moreover, the TGI was over 100 µM in the test with A549 NSCLC; 35 µM with HCC-2998 colon; 34.1 µM with HCT-15 colon; 40.4 µM in the test with HT29 colon; 63.7 µM in the test with IGROV1 ovarian; 46.4 µM in the test on RPMI-8226 leukemia. Moreover, the TGI in the test with SF-295 CNS is 27.9 µM; in the test on SR leukemia it was 63.7 µM; in the test with TK-10 renal it was 64.8 µM.
Consider `C[C@H](CS)C(=O)N1c2ccccc2C[C@H]1C(=O)O`, for which the TGI in the test with A549 NSCLC, in the test with EKVX NSCLC, with HCC-2998 colon, in the test with HCT-15 colon, with HT29 colon and with IGROV1 ovarian was over 100 µM in each case. The TGI in the test with SF-295 CNS, with SR leukemia and in the test on TK-10 renal was over 100 µM in each case.
Turning to `CC(=O)OCC1OC(OCc2ccccc2)C(Br)C(OC(C)=O)C1OC(C)=O` (stereo unspecified), the TGI in the test with A549 NSCLC, in the test on HCC-2998 colon, in the test with HCT-15 colon, in the test with HT29 colon, in the test on IGROV1 ovarian and in the test with RPMI-8226 leukemia was over 100 µM each time. Besides, the TGI in the test on SF-295 CNS, with SR leukemia and in the test on TK-10 renal was over 100 µM in each case.
Take `O=c1c2ccccc2nc(-c2ccccc2Cl)n1-c1nnc(C(F)(F)F)s1`: the GI50 with A549 NSCLC was 3.26 µM; in the test on HCC-2998 colon, 4.24 µM; in the test with HCT-15 colon it was 2.94 µM; in the test with HT29 colon, 3.18 µM; in the test on IGROV1 ovarian, 4.17 µM; with RPMI-8226 leukemia it was 2.26 µM. For the same molecule, the values for the GI50 in the test with SF-295 CNS, in the test on SR leukemia and in the test with TK-10 renal were 2.44 µM, 3.73 µM and 3.99 µM, respectively. The TGI was over 100 µM with A549 NSCLC; 19.6 µM with HCC-2998 colon; 15 µM with HCT-15 colon; 13.6 µM in the test with HT29 colon; over 100 µM in the test on IGROV1 ovarian; 8.13 µM in the test on RPMI-8226 leukemia. Besides, the TGI in the test with SF-295 CNS was 9.11 µM; in the test with SR leukemia, 24.6 µM; with TK-10 renal, 24 µM.
Regarding `CN(C)CCn1cnc2ncccc2c1=O`, the TGI in the test on A549 NSCLC, with EKVX NSCLC, with HCC-2998 colon, in the test with HT29 colon, with IGROV1 ovarian and in the test on SF-295 CNS was over 100 µM each time. Also, the TGI with SR leukemia and in the test with TK-10 renal was over 100 µM throughout.
`COC(=O)C1(C)CC2C(C)(CCC3(C)C4=CC=C5C(=CC(=O)C(O)=C5C)C4(C)CCC23C)CC1O` (stereo unspecified): the TGI is 4.94 µM with A549 NSCLC; 2.7 µM in the test on EKVX NSCLC; 2.9 µM in the test with HCC-2998 colon; 2.53 µM with HT29 colon; 1.18 µM with IGROV1 ovarian; 3.43 µM with SF-295 CNS. The TGI is 0.575 µM in the test with SR leukemia and 1.59 µM with TK-10 renal.
`COc1cccc2nc3ccccc3nc12`: the TGI is over 100 µM in the test with A549 NSCLC; over 100 µM with EKVX NSCLC; over 100 µM in the test with HCC-2998 colon; over 100 µM with HCT-15 colon; over 100 µM in the test with HT29 colon; 69.1 µM in the test with RPMI-8226 leukemia. Further, the TGI in the test with SF-295 CNS, with SR leukemia and with TK-10 renal was over 100 µM in each case.

The values above are taken from PubChem BioAssay (NCI).
